Experiment: xn = mol fraction of the nth substance listed
Settings: 101 kPa, Liquid

CN(CCO)CCO [N-methyldiethanolamine] + O
mass density [kg/m3]
Settings | 298.15 K | 303.15 K | 308.15 K | 313.15 K | 318.15 K | 323.15 K
x1 = 0.0128 | 1004.06 | 1002.48 | 1000.7 | 998.731 | 996.584 | 994.273
x1 = 0.0212 | 1008.41 | 1006.7 | 1004.8 | 1002.72 | 1000.48 | –
x1 = 0.0498 | 1020.08 | 1017.93 | 1015.63 | 1013.18 | 1010.59 | –
x1 = 0.0645 | 1026.39 | 1023.98 | 1021.43 | 1018.77 | 1015.98 | –
x1 = 0.0799 | 1030.85 | 1028.25 | 1025.53 | 1022.69 | 1019.74 | –
x1 = 0.1332 | 1042.8 | 1039.65 | 1036.42 | 1033.1 | 1029.71 | –
x1 = 0.1557 | 1045.44 | 1042.17 | 1038.83 | 1035.41 | 1031.92 | –
x1 = 0.1944 | 1049.91 | 1046.42 | 1042.86 | 1039.23 | 1035.54 | –
x1 = 0.2407 | 1050.84 | 1048.11 | 1044.45 | 1040.73 | 1036.95 | –
x1 = 0.2725 | 1052.41 | 1048.8 | 1045.14 | 1041.41 | 1037.63 | –
x1 = 0.366 | 1052.54 | 1048.78 | 1044.97 | 1041.1 | 1037.2 | –
x1 = 0.4302 | 1050.97 | 1047.2 | 1043.38 | 1039.51 | 1035.6 | –
x1 = 0.5642 | 1046.85 | 1043.08 | 1039.28 | 1035.45 | 1031.61 | –
x1 = 0.6687 | 1041.44 | 1037.68 | 1033.89 | 1030.08 | 1026.25 | –
x1 = 0.7531 | 1039.27 | 1035.87 | 1031.92 | 1028.73 | 1025.02 | –

Reference: the NIST ThermoML archive (doi:10.1021/je800416y)
